Data: patent US9605283B2, “Microorganism modified for the production of 1,3-propanediol” (INSTITUT NATIONAL DES SCIENCES APPLIQUÉES, priority 2012, dated 2017)
Changes are numbered by the printed parent chain. Each block holds one molecule with its values, some of them ahead of it.

Key:
Type in all cases: biochemical
[1] = target: T1, Zymomonas mobilis pyruvate decarboxylase Zm-Pdc variant W392L, SEQ ID No. 192 (Zymomonas mobilis, UniProt P06672, W392L); assay: OHB decarboxylase / pyruvate decarboxylase kinetics, Zm-Pdc W392L; conditions: 37° C., pH 7, coupled to yeast alcohol dehydrogenase/NADH; read-out: Km (natural substrate, pyruvate)
T1 sequence (P06672 1-568 W392L): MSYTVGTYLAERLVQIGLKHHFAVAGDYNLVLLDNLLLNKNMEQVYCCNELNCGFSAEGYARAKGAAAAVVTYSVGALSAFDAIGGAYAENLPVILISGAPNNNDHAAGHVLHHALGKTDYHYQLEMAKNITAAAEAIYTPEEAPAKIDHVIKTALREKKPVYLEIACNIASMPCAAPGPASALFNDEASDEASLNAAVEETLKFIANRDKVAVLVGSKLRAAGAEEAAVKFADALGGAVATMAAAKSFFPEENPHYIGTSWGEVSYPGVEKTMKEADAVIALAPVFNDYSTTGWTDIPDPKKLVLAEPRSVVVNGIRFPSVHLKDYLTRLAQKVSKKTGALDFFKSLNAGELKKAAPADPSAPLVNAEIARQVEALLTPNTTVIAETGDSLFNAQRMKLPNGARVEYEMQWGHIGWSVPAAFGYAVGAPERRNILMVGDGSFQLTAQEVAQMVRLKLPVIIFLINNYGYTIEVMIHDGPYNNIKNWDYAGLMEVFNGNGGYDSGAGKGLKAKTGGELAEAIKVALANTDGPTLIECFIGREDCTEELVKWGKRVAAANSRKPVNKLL
Protocol: (§1) OHB decarboxylase activity was assayed by coupling the decarboxylase activity to the NADPH-dependent reduction of the released 3-hydroxypropanal by purified aldehyde reductase, YqhD, from E. coli. The decarboxylation of pyruvate was coupled to the NADH-dependent reduction of acetaldehyde catalysed by yeast alcohol dehydrogenase. Branched-chain alpha-ketoacid decarboxylase activity was measured on 4-methyl-2-oxovaleric acid by coupling to the NADH-dependent reduction of 3-methylbutanal catalysed by horse liver alcohol dehydrogenase. […] Reactions were started by adding 20 mM 2-oxo-4-hydroxybutyrate (OHB), 10 mM 4-methyl-2-oxovaleric acid (MOV), or 5 mM pyruvate.
(§2) Site-directed mutagenesis of the L. lactis kdcA and the Z. mobilis Pdc genes was carried out using the oligonucleotide pairs listed in Table 9 and the pET28-Ll-kdcA and pET28-Zm-Pdc plasmids, respectively, as the template.
(§3) Mutant enzymes were expressed, purified and tested for OHB decarboxylase, pyruvate decarboxylase and MOV decarboxylase activity as described in Example 4.

[2] = target: T2, Zymomonas mobilis pyruvate decarboxylase Zm-Pdc variant G413N, SEQ ID No. 194 (Zymomonas mobilis, UniProt P06672, G413N); assay: OHB decarboxylase / pyruvate decarboxylase kinetics, Zm-Pdc G413N; conditions: 37° C., pH 7, coupled to yeast alcohol dehydrogenase/NADH; read-out: Km (natural substrate, pyruvate)
T2 sequence (P06672 1-568 G413N): T1 sequence (P06672 1-568 W392L) with L392W, G413N
Protocol: as §1, §2, §3

[3] = target: T3, Escherichia coli malate dehydrogenase Ec-Mdh variant R81A I12V, SEQ ID No. 162 (Escherichia coli, UniProt P61889, I12V/R81A); assay: DHB dehydrogenase / malate dehydrogenase kinetics, Ec-Mdh R81A I12V; conditions: read-out: Km (DHB); 37° C., pH 8, 10 mM NAD
T3 sequence (P61889 1-312 I12V/R81A): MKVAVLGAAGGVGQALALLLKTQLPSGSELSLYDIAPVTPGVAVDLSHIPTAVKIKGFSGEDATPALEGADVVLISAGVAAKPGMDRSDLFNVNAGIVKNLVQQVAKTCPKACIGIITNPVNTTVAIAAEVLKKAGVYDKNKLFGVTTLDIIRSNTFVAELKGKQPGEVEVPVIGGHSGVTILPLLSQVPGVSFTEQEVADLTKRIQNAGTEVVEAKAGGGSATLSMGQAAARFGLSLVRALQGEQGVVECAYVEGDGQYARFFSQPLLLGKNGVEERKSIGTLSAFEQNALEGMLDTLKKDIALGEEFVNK
Protocol: (§4) Activity of the cytosolic DHB dehydrogenases (Ec-Mdh, Bs-Mdh, Ll-LdhA) was assayed by following the DHB-dependent reduction of NAD^+.
(§5) The reaction mixture contained 60 mM Hepes (pH 8), 50 mM potassium chloride, 5 mM MgCl2, 10 mM NAD, (optionally, 5 mM fructose-1,6-bisphosphate (F16bP)) (all products from Sigma), and appropriate amounts of purified enzyme or cell extract. Reactions were started by adding 50 mM (L)-2,4-dihydroxybutyrate (Rhodia).
All enzymatic assays were carried out at 37° C. in 96-well flat bottomed microtiter plates in a final volume of 250 μL.

[4] = target: T4, Escherichia coli malate dehydrogenase Ec-Mdh variant R81A G179D, SEQ ID No. 168 (Escherichia coli, UniProt P61889, G179D/R81A); assay: DHB dehydrogenase kinetics, Ec-Mdh R81A G179D; conditions: 37° C., pH 8, 10 mM NAD
T4 sequence (P61889 1-312 R81A/G179D): T3 sequence (P61889 1-312 I12V/R81A) with V12I, G179D
Protocol: Site-directed mutagenesis of the E. coli mdh and the B. subtilis mdh genes were carried out using the oligonucleotide pairs listed in Table 3 and the pET28-Ec-mdh and the pET28-Bs-mdh plasmids as the templates. Point mutations to change the amino acid sequence were introduced by PCR (Phusion 1U, HF buffer 20% (v/v), dNTPs 0.2 mM, direct and reverse primers 0.04 μM each, template plasmid 50 ng, water) using the oligonucleotide pairs listed in Table 3. Mutated genes contained a new restriction site listed in Table 3 (introduced using silent mutations) in addition to the functional mutation to facilitate identification of mutated clones. The PCR products were digested by DpnI at 37° C. for 1 h to remove template DNA, and transformed into competent E. coli DH5-alpha cells (NEB). The mutated plasmids were identified by restriction site analysis and verified to carry the desired mutations by DNA sequencing.
Mutant enzymes were expressed, purified and tested for DHB dehydrogenase activity as described in Example 1.
The mutation R81A in Ec-Mdh (by reference to SEQ ID No. 124) was combined with additional changes in the protein sequence.

[5] = DHB dehydrogenase activity of cytosolic enzymes (DHB-dependent reduction of NAD+)
Protocol: as §4, §5
All enzymatic assays were carried out at 37° C. in 96-well flat bottomed microtiter plates in a final volume of 250 μL. The reactions were followed by the characteristic absorption of NADH at 340 nm (εNADH=6.22 mM^−1 cm^−1) or the absorbtion of DCIP at 655 nm (εDCIP=5.9 mM^−1 cm^−1) in a microplate reader (BioRad 680XR).

[6] = Malate dehydrogenase activity (natural substrate)

Molecule: CC(=O)C(=O)O [pyruvate]
Km [1]: > 50 mM
Km [2]: > 50 mM

Molecule: O=C(O)[C@@H](O)CCO [DHB, (L)-2,4-dihydroxybutyrate]
Km [3]: > 100 mM
Km [4]: > 100 mM

maximum activity on DHB ([5]; text of Example 2): 0 µmol/mg/min
activity on malate ([6]; text of Example 2): 10.9 µmol/mg/min
Molecule: Bs-Mdh: (L)-malate dehydrogenase of Bacillus subtilis, wild-type, SEQ ID No. 126
DHB dehydrogenase activity (in words) ([5]; cytosolic wild-type enzymes): no measurable DHB dehydrogenase activity
Max. specific activity, DHB ([5]; when not saturated, activity estimated at 50 mM substrate, Table 2): 0 µmol/mg/min
Max. specific activity, Natural substrate ([6]; natural substrate (L)-malate, Table 2): 10.5 µmol/mg/min
